Test results taken from PubChem BioAssay (NCI).
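Each compound was tested at five concentrations against cells in 96-well plates for 48 hours. TGI: total growth inhibition.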

Legend:
Assay in all cases: NCI tumour cell line growth inhibition, 48 h
[1] = tested on: 786-0 renal
[2] = tested on: A498 renal
[3] = tested on: A549 NSCLC
[4] = tested on: ACHN renal
[5] = tested on: CAKI-1 renal
[6] = tested on: COLO 205 colon
[7] = tested on: DLD-1 colon
[8] = tested on: DMS 273 small cell lung
[9] = tested on: EKVX NSCLC
[10] = tested on: HCC-2998 colon
[11] = tested on: HCT-15 colon
[12] = tested on: HL-60(TB) leukemia
[13] = tested on: HOP-18 NSCLC
[14] = tested on: HOP-62 NSCLC
[15] = tested on: HOP-92 NSCLC
[16] = tested on: HT29 colon
[17] = tested on: IGROV1 ovarian
[18] = tested on: K-562 leukemia
[19] = tested on: KM12 colon
[20] = tested on: LOX IMVI melanoma
[21] = tested on: LXFL 529 NSCLC
[22] = tested on: M14 melanoma
[23] = tested on: M19-MEL melanoma
[24] = tested on: MALME-3M melanoma
[25] = tested on: MOLT-4 leukemia
[26] = tested on: NCI-H226 lung
[27] = tested on: NCI-H23 lung
[28] = tested on: NCI-H460 lung
[29] = tested on: OVCAR-3 ovarian
[30] = tested on: OVCAR-4 ovarian
[31] = tested on: OVCAR-5 ovarian
[32] = tested on: OVCAR-8 ovarian
[33] = tested on: RPMI-8226 leukemia
[34] = tested on: SF-268 CNS
[35] = tested on: SF-295 CNS
[36] = tested on: SF-539 CNS
[37] = tested on: SK-MEL-2 melanoma
[38] = tested on: SK-MEL-28 melanoma
[39] = tested on: SK-OV-3 ovarian
[40] = tested on: SN12C renal
[41] = tested on: SNB-19 CNS
[42] = tested on: SNB-78 CNS
[43] = tested on: SW-620 colon
[44] = tested on: TK-10 renal
[45] = tested on: U251 CNS
[46] = tested on: UACC-62 melanoma
[47] = tested on: UO-31 renal
[48] = tested on: XF 498 CNS
[49] = tested on: BT-549 breast
[50] = tested on: CCRF-CEM leukemia
[51] = tested on: DU-145 prostate
[52] = tested on: HCT-116 colon
[53] = tested on: HS 578T breast
[54] = tested on: MCF7 breast
[55] = tested on: MDA-MB-231 breast
[56] = tested on: MDA-MB-435
[57] = tested on: MDA-N
[58] = tested on: NCI-H522 lung
[59] = tested on: NCI/ADR-RES ovarian
[60] = tested on: PC-3 prostate
[61] = tested on: RXF 393 renal
[62] = tested on: SK-MEL-5 melanoma
[63] = tested on: SNB-75 CNS
[64] = tested on: SR leukemia
[65] = tested on: T-47D breast
[66] = tested on: UACC-257 melanoma

Structure (SMILES): Nc1nc2c(-c3ccc([N+](=O)[O-])cc3)nnn2c2ccccc12
- TGI [1]: > 100 µM
- TGI [2]: > 100 µM
- TGI [3]: > 100 µM
- TGI [4]: > 100 µM
- TGI [5]: > 100 µM
- TGI [6]: > 100 µM
- TGI [7]: > 100 µM
- TGI [8]: > 100 µM
- TGI [9]: > 100 µM
- TGI [10]: > 100 µM
- TGI [11]: > 100 µM
- TGI [12]: > 100 µM
- TGI [13]: > 100 µM
- TGI [14]: > 100 µM
- TGI [15]: > 100 µM
- TGI [16]: > 100 µM
- TGI [17]: > 100 µM
- TGI [18]: > 100 µM
- TGI [19]: > 100 µM
- TGI [20]: > 100 µM
- TGI [21]: > 100 µM
- TGI [22]: > 100 µM
- TGI [23]: > 100 µM
- TGI [24]: > 100 µM
- TGI [25]: > 100 µM
- TGI [26]: > 100 µM
- TGI [27]: > 100 µM
- TGI [28]: > 100 µM
- TGI [29]: 95.3 µM
- TGI [30]: > 100 µM
- TGI [31]: > 100 µM
- TGI [32]: > 100 µM
- TGI [33]: > 100 µM
- TGI [34]: > 100 µM
- TGI [35]: > 100 µM
- TGI [36]: > 100 µM
- TGI [37]: > 100 µM
- TGI [38]: > 100 µM
- TGI [39]: > 100 µM
- TGI [40]: > 100 µM
- TGI [41]: > 100 µM
- TGI [42]: > 100 µM
- TGI [43]: > 100 µM
- TGI [44]: 48.9 µM
- TGI [45]: 66.4 µM
- TGI [46]: > 100 µM
- TGI [47]: > 100 µM
- TGI [48]: > 100 µM

Structure (SMILES): COc1cc2cc3c4c(cc(OC)c(OC)c4c2cc1OC)CCN3C
- TGI [1]: > 50 µM
- TGI [2]: > 38.1 µM
- TGI [3]: > 50 µM
- TGI [4]: 31.7 µM
- TGI [49]: > 23.6 µM
- TGI [5]: 25.7 µM
- TGI [50]: 7.27 µM
- TGI [6]: 39.6 µM
- TGI [51]: 19.8 µM
- TGI [9]: > 50 µM
- TGI [10]: 33.1 µM
- TGI [52]: > 25.7 µM
- TGI [11]: > 47.8 µM
- TGI [12]: 18.7 µM
- TGI [14]: > 50 µM
- TGI [15]: > 50 µM
- TGI [53]: > 50 µM
- TGI [16]: > 37.5 µM
- TGI [17]: > 43.7 µM
- TGI [18]: > 50 µM
- TGI [19]: > 50 µM
- TGI [20]: 16.7 µM
- TGI [22]: > 50 µM
- TGI [24]: 24.9 µM
- TGI [54]: > 36.4 µM
- TGI [55]: > 44.1 µM
- TGI [56]: > 23.4 µM
- TGI [57]: > 50 µM
- TGI [25]: > 31.4 µM
- TGI [26]: 26.7 µM
- TGI [27]: > 50 µM
- TGI [28]: > 27.3 µM
- TGI [58]: 23.9 µM
- TGI [59]: > 48.2 µM
- TGI [29]: 31.9 µM
- TGI [30]: 12 µM
- TGI [31]: 49 µM
- TGI [32]: > 50 µM
- TGI [60]: > 29.9 µM
- TGI [33]: 12.9 µM
- TGI [61]: 12.3 µM
- TGI [34]: > 50 µM
- TGI [35]: > 31.8 µM
- TGI [36]: 40.5 µM
- TGI [37]: 30 µM
- TGI [38]: > 50 µM
- TGI [62]: 16.6 µM
- TGI [39]: > 50 µM
- TGI [40]: > 50 µM
- TGI [41]: > 50 µM
- TGI [63]: 27.8 µM
- TGI [64]: > 10.8 µM
- TGI [43]: > 50 µM
- TGI [65]: 4.1 µM
- TGI [44]: > 23.4 µM
- TGI [45]: > 50 µM
- TGI [66]: 27.3 µM
- TGI [46]: 14.3 µM
- TGI [47]: 40.6 µM
